What all share (assay type): binding
The target of test [1] is T1, LARS1 (leucyl-tRNA synthetase 1) (Homo sapiens, UniProt Q9P2J5).
T1 construct: full length 1-1176, His-tagged in pQE-80L (BamHI/HindIII), E. coli Rosetta (DE3); tag removal not mentioned; one molecule in the asymmetric unit; lysines reductively methylated in LARS1-methyl (6KR7)
Kind of test: X-ray crystallography, co-crystal. The conditions noted are these: 2 mM leucine; bis-tris pH 6.5, 1.6 M ammonium sulfate; LARS1-Leu^syn, synthetic site.

The target in test [2] is T1, LARS1 (leucyl-tRNA synthetase 1). Kind of test: intrinsic-fluorescence DSF (Tycho NT.[…]). The conditions noted are these: 2, 5, 10, 20 mM leucine; Tris-HCl pH 7.5, 150 mM NaCl, 5 mM MgCl2, 2 mM DTT, 0.1% Tween-20; 1 mg/mL LARS1.
The target is the same in test [3]. Kind of test: microscale thermophoresis (Monolith NT.[…], RED-tris-NTA labelled His-LARS1). For orientation: MST reads how a fluorescent partner responds to local heating, with and without ligand.

Each structure is given as a SMILES string.

T1 sequence (Q9P2J5 whole entry): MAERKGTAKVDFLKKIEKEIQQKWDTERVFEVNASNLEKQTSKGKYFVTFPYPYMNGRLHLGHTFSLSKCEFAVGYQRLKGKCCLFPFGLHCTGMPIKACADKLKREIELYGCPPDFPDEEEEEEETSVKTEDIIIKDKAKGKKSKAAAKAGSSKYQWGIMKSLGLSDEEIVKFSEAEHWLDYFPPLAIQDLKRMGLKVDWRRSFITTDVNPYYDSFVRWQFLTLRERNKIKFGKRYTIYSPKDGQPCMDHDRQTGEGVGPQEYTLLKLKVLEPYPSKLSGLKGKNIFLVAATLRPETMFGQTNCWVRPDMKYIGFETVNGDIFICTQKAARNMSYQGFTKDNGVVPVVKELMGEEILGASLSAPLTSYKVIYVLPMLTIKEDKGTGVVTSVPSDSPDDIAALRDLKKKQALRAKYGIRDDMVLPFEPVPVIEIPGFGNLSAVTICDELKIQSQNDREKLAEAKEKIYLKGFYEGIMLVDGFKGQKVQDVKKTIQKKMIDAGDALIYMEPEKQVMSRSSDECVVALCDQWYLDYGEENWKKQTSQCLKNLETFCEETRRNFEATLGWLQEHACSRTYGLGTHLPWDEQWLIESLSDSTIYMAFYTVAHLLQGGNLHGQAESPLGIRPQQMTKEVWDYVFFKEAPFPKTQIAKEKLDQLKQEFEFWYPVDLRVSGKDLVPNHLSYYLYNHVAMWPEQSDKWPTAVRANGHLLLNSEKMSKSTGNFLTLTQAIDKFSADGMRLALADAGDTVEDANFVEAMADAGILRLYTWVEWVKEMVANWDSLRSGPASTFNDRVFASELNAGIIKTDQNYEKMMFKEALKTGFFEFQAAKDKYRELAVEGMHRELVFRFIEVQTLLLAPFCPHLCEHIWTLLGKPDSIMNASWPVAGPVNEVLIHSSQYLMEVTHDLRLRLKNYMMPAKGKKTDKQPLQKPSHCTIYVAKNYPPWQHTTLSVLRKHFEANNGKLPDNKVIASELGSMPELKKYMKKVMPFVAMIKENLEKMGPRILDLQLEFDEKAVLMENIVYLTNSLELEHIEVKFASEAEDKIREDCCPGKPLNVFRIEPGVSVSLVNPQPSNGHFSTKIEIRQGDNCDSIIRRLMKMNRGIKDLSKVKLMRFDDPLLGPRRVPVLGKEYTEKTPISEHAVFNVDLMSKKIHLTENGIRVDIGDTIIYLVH

In the case of `CC(C)C[C@H](N)C(=O)O` [L-Leucine], in test [1], the “X-ray crystallography, co-crystal” value is recorded as “prepare LARS1-Leu^syn crystals subsequently deposited in PDB with the code 6KQY”. Besides, the Ti result in test [2] is “LARS1 was incubated with leucine and the inflection temperature (Ti) was measured”. Also, in test [3], the Kd (in general, the equilibrium constant for the complex coming apart) was found to be 119 ± 63.1 µM.

These data come from publication PMC8260868, “Protocol for improving diffraction quality of leucyl-tRNA synthetase 1 with methylation and post-crystallization soaking and cooling in cryoprotectants” (STAR Protocols, 2021).
